The source of these data is patent publication US6855309B2, “Cascade polymer bound complexing compounds, their complexes and conjugates, processes for their production, and pharmaceutical agents containing them” (Schering, AG, priority 1989, dated 2005).

Read-outs that look alike come from different tables or passages of the source.

For data set [1] the following is noted: in vivo, cited from earlier work.
The nature of data set [2]: Concentration-time curve in blood after intravenous administration in rats. The data set is classed as in vivo. The note with it: 0.2 mmol/kg intravenous.
The next data set is described as follows: Osmolality. The data set is classed as physicochemical. The note with it: 0.5 mol/l at 37° C.
The subject of a further data set is mice. Kind of data set: LD50 i.v. in mice. The data set is classed as in vivo.
The conditions of data set [3]: rat, in vivo; cited from earlier work.
The conditions of data set [4]: rat, in vivo; cited from earlier work. The source holds these as a separate data set.

For orientation: LD50 means the dose expected to kill half of the subjects tested. Lower therefore signals a more toxic substance. Take `CNC[C@H](O)[C@@H](O)[C@H](O)[C@H](O)CO.CNC[C@H](O)[C@@H](O)[C@H](O)[C@H](O)CO.O=C([O-])CN(CCN(CC(=O)[O-])CC(=O)O)CCN(CC(=O)[O-])CC(=O)O.[Gd+3]` [Magnevist, GdDTPA/dimeglumine]: the route of elimination entry in data set [1] (iv) was “eliminated, upon intravenous injection, by way of the kidneys”. For the same compound, the “distribution after intravenous administration” value in data set [1] was “distributed after intravenous administration uniformly between the vasal and interstitial spaces”. In addition, the distribution space result in data set [2] is on record as “distributed in the extracellular space”. The Osmolality in “Osmolality” stood at 1.96 osmol/kg. The LD50 with mice was no more than 10 mmol/kg.

As for Albumin-GdDTPA, the dose eliminated in data set [3] is 20 % of the dose.

Take polylysine-GdDTPA: the route of elimination entry in data set [4] is “eliminated unchanged by glomerular filtration via the kidneys”.
